Consider 43 compounds from patent publication US11548849B2, “Alcohol derivatives as KV7 potassium channel openers” (H. Lundbeck A/S, priority 2019, dated 2023).

The target in the experiment is T1, hKv7.2/hKv7.3 (Homo sapiens, UniProt O43525+O43526).
T1 construct: P2A self-cleaving peptide (between Kv7.3 and Kv7.2; the remnant would stay on the upstream protein) (C); expressed in transfected cells
The experiment is described as follows: Thallium influx assay for potassium channel activation. Particulars: HEK-hKv7.2/hKv7.3 cells; FLIPR Potassium Assay kit; AUC readout normalized to a reference compound. Format: cell-based. The method, then: A synthesized cDNA fragment encoding human Kv7.3 and human Kv7.2 separated by a P2A sequence was inserted into the pcDNA5/FRT/TO vector using the BamHI and XhoI restriction sites. The construct was then transfected into HEK Flp-In 293 cells using Lipofectamine2000. The transfected cells were grown for 48 hours in DMEM containing 10% (v/v) FBS and 1% PenStrep and subsequently maintained under selection in DMEM containing 10% (v/v) FBS, 1% PenStrep and 200 ug/mL Hygromycin B at 37° C. in a humidified atmosphere of 5% CO2.
The thallium influx assay for potassium channel activation was performed analogously to a published procedure (C. D. Weaver, et al., J Biomol Screen 2004, 9, 671-677) using the FLIPR Potassium Assay kit (Molecular Devices). HEK-hKv7.2/hKv7.3 cells were plated onto 96-well, black-walled, clear-bottomed culture plates (Corning, Acton, Mass., USA) at a density of 80,000 cells/well (100 μl/well) if the cells were assayed the following day, or 40,000 cells/well (100 μl/well) if the cells were assayed two days after seeding.
On the assay day, the medium was removed after which 50 uL/well of test compound diluted to 2× final concentration in HBSS containing 20 mM HEPES, and 50 uL/well of 2× dye load buffer were added. The cells were then incubated for 60 min at room temperature in the dark. Chloride-free stimulation buffer containing Tl^+ and K^+ at 5× final concentration (5× concentration: 5 mM in both cases) and test compound at 1× final concentration, were prepared during the incubation. The cells were then assayed in a FDSS7000EX Functional Drug Screening System (Hamamatsu). Following 60 sec of baseline fluorescence signal reading at 0.1 Hz, and 10 sec at 1 Hz, 25 uL/well of stimulation buffer were added and the fluorescence continuously measured for 50 sec at 1 Hz followed, by 4 min at 0.1 Hz. Compound effect was quantified using AUC as readout and normalized to a reference compound, which was included on each plate.
`CC(C)(C)C(O)CC(=O)N[C@@H](COC(F)F)c1cccc(OC(F)F)c1` (single isomer, unassigned) [Example 1a]: the EC50 (in general, the midpoint of the concentration-response curve) is 7600 nM.
`CC(C)(C)C(O)CC(=O)N[C@@H](COC(F)F)c1cccc(OC(F)F)c1` (single isomer, unassigned) [Example 1b] registered an EC50 of 420 nM. This EC50 is about 18-fold lower than that of the compound before.
The figure for `CCOC[C@H](NC(=O)CC(O)C(C)(C)C)c1cccc(OC(F)(F)F)c1` (single isomer, unassigned) [Example 2a] is 10000 nM; for `CCOC[C@H](NC(=O)CC(O)C(C)(C)C)c1cccc(OC(F)(F)F)c1` (single isomer, unassigned) [Example 2b] it is 1800 nM.
The figure for `O=C(CC(O)C1(C(F)(F)F)CC1)N[C@@H](COC(F)F)c1cccc(OC(F)F)c1` (single isomer, unassigned) [Example 3a] is 2800 nM; for `O=C(CC(O)C1(C(F)(F)F)CC1)N[C@@H](COC(F)F)c1cccc(OC(F)F)c1` (single isomer, unassigned) [Example 3b] it is 2400 nM.
Regarding `O=C(CC(O)C1(C(F)(F)F)CC1)N[C@@H](COC(F)F)c1cccc(OC(F)(F)F)c1` (single isomer, unassigned) [Example 4a], it took 1700 nM to reach a half-maximal effect (EC50). This EC50 and that of the compound before are within 1.5-fold of each other.
The compound `O=C(CC(O)C1(C(F)(F)F)CC1)N[C@@H](COC(F)F)c1cccc(OC(F)(F)F)c1` (single isomer, unassigned) [Example 4b] showed a concentration giving a half-maximal response (EC50) of 2900 nM.
The figure for `O=C(CC(O)C1CC(F)(F)C1)N[C@@H](COC(F)F)c1cccc(OC(F)F)c1` (single isomer, unassigned) [Example 5a] is 1200 nM.
For `O=C(CC(O)C1CC(F)(F)C1)N[C@@H](COC(F)F)c1cccc(OC(F)F)c1` (single isomer, unassigned) [Example 5b], the EC50 worked out at 4500 nM. This EC50 is about 3.8-fold higher than that of the compound before.
The figure for `O=C(CC(O)C1CC(F)(F)C1)N[C@@H](COC(F)F)c1cccc(OC(F)(F)F)c1` (single isomer, unassigned) [Example 6a] is 2500 nM; for `O=C(CC(O)C1CC(F)(F)C1)N[C@@H](COC(F)F)c1cccc(OC(F)(F)F)c1` (single isomer, unassigned) [Example 6b] it is 1100 nM.
The figure for `CCC[C@H](NC(=O)CC(O)C1CC(F)(F)C1)c1cccc(OC(F)F)c1` (single isomer, unassigned) [Example 7a] is 4000 nM.
The figure for `CCC[C@H](NC(=O)CC(O)C1CC(F)(F)C1)c1cccc(OC(F)F)c1` (single isomer, unassigned) [Example 7b] is 25000 nM.
`CCC1(C(O)CC(=O)N[C@@H](COC(F)F)c2cccc(OC(F)F)c2)CC1` (single isomer, unassigned) [Example 8a] displayed an EC50 of 4800 nM.
`CCC1(C(O)CC(=O)N[C@@H](COC(F)F)c2cccc(OC(F)F)c2)CC1` (single isomer, unassigned) [Example 8b] came in with a concentration giving a half-maximal response (EC50) of 1200 nM. This EC50 is about 4-fold lower than that of the compound before.
The figure for `CC(O)(CC(=O)N[C@@H](COC(F)F)c1cccc(OC(F)F)c1)C1(F)CC1` (single isomer, unassigned) [Example 9a] is 1500 nM; for `CC(O)(CC(=O)N[C@@H](COC(F)F)c1cccc(OC(F)F)c1)C1(F)CC1` (single isomer, unassigned) [Example 9b] it is 9200 nM; for `CC(O)(CC(=O)N[C@@H](COC(F)F)c1cccc(OC(F)(F)F)c1)C1(F)CC1` (single isomer, unassigned) [Example 10a] it is 660 nM.
The figure for `CC(O)(CC(=O)N[C@@H](COC(F)F)c1cccc(OC(F)(F)F)c1)C1(F)CC1` (single isomer, unassigned) [Example 10b] is 4100 nM; for `CC(O)(CC(=O)N[C@@H](COC(F)F)c1cccc(OC(F)(F)F)c1)C1CC1` (single isomer, unassigned) [Example 11a] it is 5400 nM.
The figure for `CC(O)(CC(=O)N[C@@H](COC(F)F)c1cccc(OC(F)(F)F)c1)C1CC1` (single isomer, unassigned) [Example 11b] is 1700 nM; for `CC(O)(CC(=O)N[C@@H](COC(F)F)c1cccc(OC(F)F)c1)CC(F)(F)F` (single isomer, unassigned) [Example 12a] it is 1300 nM; for `CC(O)(CC(=O)N[C@@H](COC(F)F)c1cccc(OC(F)F)c1)CC(F)(F)F` (single isomer, unassigned) [Example 12b] it is 6200 nM.
As for `CC(C)CC(C)(O)CC(=O)N[C@@H](COC(F)F)c1cccc(OC(F)F)c1` (single isomer, unassigned) [Example 13a], the EC50 was found to be 960 nM.
`CC(C)CC(C)(O)CC(=O)N[C@@H](COC(F)F)c1cccc(OC(F)F)c1` (single isomer, unassigned) [Example 13b]: the EC50 was found to be 360 nM. Against the preceding compound, the EC50 is about 2.7-fold lower.
The figure for `CC(C)C(C)(O)CC(=O)N[C@@H](COC(F)F)c1cccc(OC(F)F)c1` (single isomer, unassigned) [Example 14a] is 5200 nM.
The figure for `CC(C)C(C)(O)CC(=O)N[C@@H](COC(F)F)c1cccc(OC(F)F)c1` (single isomer, unassigned) [Example 14b] is 1300 nM; for `CC1(C)CC(C(O)CC(=O)N[C@@H](COC(F)F)c2cccc(OC(F)F)c2)C1` (single isomer, unassigned) [Example 15a] it is 3700 nM.
In turn, `CC1(C)CC(C(O)CC(=O)N[C@@H](COC(F)F)c2cccc(OC(F)F)c2)C1` (single isomer, unassigned) [Example 15b] showed an EC50 of 650 nM. This EC50 lies about 5.7-fold lower than the previous one.
The figure for `O=C(CC(O)C1CCCC1)N[C@@H](COC(F)F)c1cccc(OC(F)F)c1` (single isomer, unassigned) [Example 16a] is 2600 nM.
Turning to `O=C(CC(O)C1CCCC1)N[C@@H](COC(F)F)c1cccc(OC(F)F)c1` (single isomer, unassigned) [Example 16b], a half-maximal response (EC50) required 430 nM.
The figure for `COC[C@H](NC(=O)C[C@](C)(O)C1(F)CC1)c1cccc(OC(F)(F)F)c1` (single isomer, unassigned) [Example 36a] is 2700 nM; for `COC[C@H](NC(=O)C[C@@](C)(O)C1(F)CC1)c1cccc(OC(F)(F)F)c1` (single isomer, unassigned) [Example 36b] it is 16000 nM.
The figure for `CC(C)(C)[C@@H](O)CC(=O)N[C@@H](COC1CC1)c1cccc(OC(F)F)c1` [Example 17, (S)—N—((R)-2-cyclopropoxy-1-(3-(difluoromethoxy)phenyl)ethyl)-3-hydroxy-4,4-dimethylpentanamide] is 1500 nM.
The figure for `CC(C)(C)[C@@H](O)CC(=O)N[C@@H](COC(F)(F)F)c1cccc(OC(F)F)c1` [Example 18, (S)—N—((R)-1-(3-(difluoromethoxy)phenyl)-2-(trifluoromethoxy)ethyl)-3-hydroxy-4,4-dimethylpentanamide] is 950 nM; for `CC(C)(C)[C@@H](O)CC(=O)N[C@@H](COC(F)(F)F)c1cccc(OC(F)(F)F)c1` [Example 19, (S)—N—((R)-1-(3-(trifluoromethoxy)phenyl)-2-(trifluoromethoxy)ethyl)-3-hydroxy-4,4-dimethylpentanamide] it is 940 nM; for `CCC[C@H](NC(=O)C[C@H](O)C(C)(C)C)c1cccc(OC(F)F)c1` [Example 20, (S)—N—((S)-1-(3-(difluoromethoxy)phenyl)butyl)-3-hydroxy-4,4-dimethylpentanamide] it is 1500 nM.
In turn, `CC(C)(C)[C@@H](O)CC(=O)N[C@@H](CCC(F)F)c1cccc(OC(F)F)c1` [Example 21, (S)—N—((S)-1-(3-(difluoromethoxy)phenyl)-4,4-difluorobutyl)-3-hydroxy-4,4-dimethylpentanamide] yielded an EC50 of 1000 nM. This EC50 lies about 1.5-fold lower than the previous one.
`CC(C)(C)[C@@H](O)CC(=O)N[C@@H](CC(F)F)c1cccc(OC(F)F)c1` [Example 22, (S)—N—((S)-1-(3-(difluoromethoxy)phenyl)-3,3-difluoropropyl)-3-hydroxy-4,4-dimethylpentanamide] had an EC50 of 4500 nM.
The figure for `C[C@H](NC(=O)C[C@H](O)C(C)(C)C)c1cccc(OC(F)F)c1` [Example 23, (S)—N—((S)-1-(3-(difluoromethoxy)phenyl)ethyl)-3-hydroxy-4,4-dimethylpentanamide] is 1500 nM; for `CC(C)(C)[C@@H](O)CC(=O)N[C@@H](CC#N)c1cccc(OC(F)(F)F)c1` [Example 24, (S)—N—((S)-2-cyano-1-(3-(trifluoromethoxy)phenyl)ethyl)-3-hydroxy-4,4-dimethylpentanamide] it is 2400 nM.
The figure for `CC(C)(C)[C@@H](O)CC(=O)N[C@@H](CCC#N)c1cccc(OC(F)(F)F)c1` [Example 25, (S)—N—((S)-3-cyano-1-(3-(trifluoromethoxy)phenyl)propyl)-3-hydroxy-4,4-dimethylpentanamide] is 1900 nM.
